Measurements as given in the NIST ThermoML archive (doi:10.1021/je900596d).
± gives the expanded uncertainty stated by the source.

Conditions: Vibrating tube method

FC(F)=C(F)C(F)(F)F [hexafluoropropene]
mass density (353.12 K, 2589.9 kPa, Fluid (supercritical or subcritical phases)): 239.58 ± 0.55 kg/m3
mass density (353.12 K, 2605.1 kPa, Fluid (supercritical or subcritical phases)): 243.48 ± 0.57 kg/m3
mass density (353.12 K, 2619.7 kPa, Fluid (supercritical or subcritical phases)): 247.37 ± 0.59 kg/m3
mass density (353.12 K, 2635.2 kPa, Fluid (supercritical or subcritical phases)): 251.52 ± 0.61 kg/m3
mass density (353.12 K, 2649.7 kPa, Fluid (supercritical or subcritical phases)): 255.58 ± 0.65 kg/m3
mass density (353.12 K, 2670.4 kPa, Fluid (supercritical or subcritical phases)): 261.98 ± 0.7 kg/m3
mass density (353.12 K, 2690 kPa, Fluid (supercritical or subcritical phases)): 268.46 ± 0.75 kg/m3
mass density (353.12 K, 2702.3 kPa, Fluid (supercritical or subcritical phases)): 272.91 ± 0.81 kg/m3
mass density (353.12 K, 2710.7 kPa, Fluid (supercritical or subcritical phases)): 275.88 ± 0.82 kg/m3
mass density (353.12 K, 2718.3 kPa, Fluid (supercritical or subcritical phases)): 278.85 ± 0.85 kg/m3
mass density (353.12 K, 2725 kPa, Fluid (supercritical or subcritical phases)): 281.55 ± 0.89 kg/m3
mass density (353.12 K, 2731.2 kPa, Fluid (supercritical or subcritical phases)): 284.3 ± 0.93 kg/m3
mass density (353.12 K, 2737.4 kPa, Fluid (supercritical or subcritical phases)): 286.74 ± 0.95 kg/m3
mass density (353.12 K, 2744.8 kPa, Fluid (supercritical or subcritical phases)): 290.14 ± 1 kg/m3
mass density (353.12 K, 2751.1 kPa, Fluid (supercritical or subcritical phases)): 293.08 ± 1.1 kg/m3
mass density (353.12 K, 2757.6 kPa, Fluid (supercritical or subcritical phases)): 296.25 ± 1.1 kg/m3
mass density (353.12 K, 2764.5 kPa, Fluid (supercritical or subcritical phases)): 299.88 ± 1.1 kg/m3
mass density (353.12 K, 2771.7 kPa, Fluid (supercritical or subcritical phases)): 303.81 ± 1.2 kg/m3
mass density (353.13 K, 2798.4 kPa, Liquid): 887.06 ± 1.3 kg/m3
mass density (353.13 K, 2805.3 kPa, Liquid): 888.96 ± 1.3 kg/m3
mass density (353.13 K, 2812.6 kPa, Liquid): 890.6 ± 1.3 kg/m3
mass density (353.13 K, 2818.9 kPa, Liquid): 891.84 ± 1.3 kg/m3
mass density (353.13 K, 2825.7 kPa, Liquid): 893.67 ± 1.2 kg/m3
mass density (353.13 K, 2832.6 kPa, Liquid): 894.71 ± 1.2 kg/m3
mass density (353.13 K, 2839.4 kPa, Liquid): 896.74 ± 1.2 kg/m3
mass density (353.13 K, 2846 kPa, Liquid): 898.09 ± 1.2 kg/m3
mass density (353.13 K, 2852.6 kPa, Liquid): 899.46 ± 1.2 kg/m3
mass density (353.13 K, 2859.8 kPa, Liquid): 900.81 ± 1.2 kg/m3
mass density (353.13 K, 2866.7 kPa, Liquid): 902.11 ± 1.2 kg/m3
mass density (353.13 K, 2873.8 kPa, Liquid): 903.63 ± 1.2 kg/m3
mass density (353.13 K, 2881 kPa, Liquid): 904.67 ± 1.2 kg/m3
mass density (353.13 K, 2888.2 kPa, Liquid): 906.06 ± 1.2 kg/m3
mass density (353.13 K, 2908.5 kPa, Liquid): 909.29 ± 1.3 kg/m3
mass density (353.13 K, 2928.4 kPa, Liquid): 912.84 ± 1.3 kg/m3
mass density (353.13 K, 2948.2 kPa, Liquid): 915.77 ± 1.2 kg/m3
mass density (353.13 K, 2969.5 kPa, Liquid): 918.7 ± 1.2 kg/m3
mass density (353.13 K, 2989.9 kPa, Liquid): 921.51 ± 1.2 kg/m3
mass density (353.13 K, 3009.6 kPa, Liquid): 924.14 ± 1.2 kg/m3
mass density (353.13 K, 3030.5 kPa, Liquid): 926.96 ± 1.2 kg/m3
mass density (353.13 K, 3051.7 kPa, Liquid): 929.82 ± 1.2 kg/m3
mass density (353.13 K, 3072.6 kPa, Liquid): 932.36 ± 1.1 kg/m3
mass density (353.13 K, 3094.1 kPa, Liquid): 935.03 ± 1.1 kg/m3
mass density (353.13 K, 3116.1 kPa, Liquid): 937.73 ± 1.1 kg/m3
mass density (353.13 K, 3136.7 kPa, Liquid): 940.03 ± 1.1 kg/m3
mass density (353.13 K, 3159.1 kPa, Liquid): 942.35 ± 1.1 kg/m3
mass density (353.13 K, 3182.1 kPa, Liquid): 944.69 ± 1.2 kg/m3
mass density (353.13 K, 3205.5 kPa, Liquid): 946.93 ± 1.1 kg/m3
mass density (353.13 K, 3225.2 kPa, Liquid): 948.79 ± 1.1 kg/m3
mass density (353.13 K, 3246.7 kPa, Liquid): 950.79 ± 1.1 kg/m3
mass density (353.13 K, 3265.8 kPa, Liquid): 952.67 ± 1.1 kg/m3
mass density (353.13 K, 3286.3 kPa, Liquid): 954.54 ± 1.1 kg/m3
mass density (353.13 K, 3309.6 kPa, Liquid): 956.7 ± 1.1 kg/m3
mass density (353.13 K, 3330.5 kPa, Liquid): 958.57 ± 1.1 kg/m3
mass density (353.13 K, 3353 kPa, Liquid): 960.43 ± 1.1 kg/m3
mass density (353.13 K, 3369.2 kPa, Liquid): 961.77 ± 1.1 kg/m3
mass density (353.13 K, 3392.7 kPa, Liquid): 963.71 ± 1.1 kg/m3
mass density (353.13 K, 3399 kPa, Liquid): 964.17 ± 1.1 kg/m3
mass density (353.13 K, 3429.5 kPa, Liquid): 966.86 ± 1.1 kg/m3
mass density (353.13 K, 3457.9 kPa, Liquid): 969.07 ± 1.1 kg/m3
mass density (353.13 K, 3487.3 kPa, Liquid): 971.26 ± 1.1 kg/m3
mass density (353.13 K, 3521.2 kPa, Liquid): 973.81 ± 1.1 kg/m3
mass density (353.13 K, 3546.8 kPa, Liquid): 975.65 ± 1.1 kg/m3
mass density (353.13 K, 3574.3 kPa, Liquid): 977.54 ± 1.1 kg/m3
mass density (353.13 K, 3599.5 kPa, Liquid): 979.42 ± 1.1 kg/m3
mass density (353.13 K, 3626.9 kPa, Liquid): 981.32 ± 1.1 kg/m3
mass density (353.13 K, 3653.9 kPa, Liquid): 982.94 ± 1.1 kg/m3
mass density (353.13 K, 3680.4 kPa, Liquid): 984.8 ± 1.1 kg/m3
mass density (353.13 K, 3736 kPa, Liquid): 988.5 ± 1.1 kg/m3
mass density (353.13 K, 3763.9 kPa, Liquid): 990.13 ± 1.1 kg/m3
mass density (353.13 K, 3788.8 kPa, Liquid): 991.7 ± 1.1 kg/m3
mass density (353.13 K, 3815.8 kPa, Liquid): 993.28 ± 1.1 kg/m3
mass density (353.13 K, 3840.7 kPa, Liquid): 994.81 ± 1.1 kg/m3
mass density (353.13 K, 3865.5 kPa, Liquid): 996.26 ± 1.1 kg/m3
mass density (353.13 K, 3891.9 kPa, Liquid): 997.74 ± 1.1 kg/m3
mass density (353.13 K, 3918.8 kPa, Liquid): 999.3 ± 1.1 kg/m3
mass density (353.13 K, 3943.7 kPa, Liquid): 1000.71 ± 1.1 kg/m3
mass density (353.13 K, 3971.8 kPa, Liquid): 1002.02 ± 1.1 kg/m3
mass density (353.13 K, 3985.4 kPa, Liquid): 1002.96 ± 1.1 kg/m3
mass density (353.13 K, 4027.5 kPa, Liquid): 1005.16 ± 1.1 kg/m3
mass density (353.13 K, 4066.7 kPa, Liquid): 1007.14 ± 1.1 kg/m3
mass density (353.13 K, 4105.8 kPa, Liquid): 1009.21 ± 1.1 kg/m3
mass density (353.13 K, 4146.8 kPa, Liquid): 1011.34 ± 1.1 kg/m3
mass density (353.13 K, 4185.8 kPa, Liquid): 1013.28 ± 1.1 kg/m3
mass density (353.13 K, 4216 kPa, Liquid): 1014.76 ± 1.1 kg/m3
mass density (353.13 K, 4257.8 kPa, Liquid): 1016.64 ± 1.1 kg/m3
mass density (353.13 K, 4298.4 kPa, Liquid): 1018.66 ± 1.1 kg/m3
mass density (353.13 K, 4335.1 kPa, Liquid): 1020.3 ± 1.1 kg/m3
mass density (353.13 K, 4374.3 kPa, Liquid): 1022.01 ± 1.1 kg/m3
mass density (353.13 K, 4415.3 kPa, Liquid): 1023.76 ± 1.1 kg/m3
mass density (353.13 K, 4454.8 kPa, Liquid): 1025.55 ± 1.1 kg/m3
mass density (353.13 K, 4494.4 kPa, Liquid): 1027.22 ± 1.1 kg/m3
mass density (353.13 K, 4534 kPa, Liquid): 1028.89 ± 1.1 kg/m3
mass density (353.13 K, 4574.1 kPa, Liquid): 1030.62 ± 1.1 kg/m3
mass density (353.13 K, 4611.4 kPa, Liquid): 1032.18 ± 1.1 kg/m3
mass density (353.13 K, 4650.8 kPa, Liquid): 1033.77 ± 1.1 kg/m3
mass density (353.13 K, 4692 kPa, Liquid): 1035.33 ± 1.1 kg/m3
mass density (353.13 K, 4731.2 kPa, Liquid): 1036.88 ± 1.1 kg/m3
mass density (353.13 K, 4772.4 kPa, Liquid): 1038.52 ± 1.1 kg/m3
mass density (353.13 K, 4813.3 kPa, Liquid): 1040.05 ± 1.1 kg/m3
mass density (353.13 K, 4854.9 kPa, Liquid): 1041.63 ± 1.1 kg/m3
mass density (353.13 K, 4892.5 kPa, Liquid): 1043.01 ± 1.1 kg/m3
mass density (353.13 K, 4933.3 kPa, Liquid): 1044.53 ± 1.1 kg/m3
mass density (353.13 K, 4970.7 kPa, Liquid): 1045.82 ± 1.1 kg/m3
mass density (353.13 K, 5012.1 kPa, Liquid): 1047.29 ± 1.1 kg/m3
mass density (353.13 K, 5052.5 kPa, Liquid): 1048.76 ± 1.1 kg/m3
mass density (353.13 K, 5091.9 kPa, Liquid): 1050.11 ± 1.1 kg/m3
mass density (353.13 K, 5130 kPa, Liquid): 1051.53 ± 1.1 kg/m3
mass density (353.13 K, 5169.1 kPa, Liquid): 1052.89 ± 1.1 kg/m3
mass density (353.13 K, 5208.1 kPa, Liquid): 1054.11 ± 1.1 kg/m3
mass density (353.13 K, 5247 kPa, Liquid): 1055.36 ± 1.1 kg/m3
mass density (353.13 K, 5287.6 kPa, Liquid): 1056.62 ± 1.1 kg/m3
mass density (353.13 K, 5325.3 kPa, Liquid): 1057.82 ± 1.1 kg/m3
mass density (353.13 K, 5365.1 kPa, Liquid): 1059.19 ± 1.1 kg/m3
mass density (353.13 K, 5403.1 kPa, Liquid): 1060.48 ± 1.1 kg/m3
mass density (353.13 K, 5442.6 kPa, Liquid): 1061.62 ± 1.1 kg/m3
mass density (353.13 K, 5480.8 kPa, Liquid): 1062.93 ± 1.1 kg/m3
mass density (353.13 K, 5559.8 kPa, Liquid): 1065.32 ± 1.1 kg/m3
mass density (353.13 K, 5597.5 kPa, Liquid): 1066.51 ± 1.1 kg/m3
mass density (353.13 K, 5634.9 kPa, Liquid): 1067.6 ± 1.1 kg/m3
mass density (353.13 K, 5673 kPa, Liquid): 1068.78 ± 1.1 kg/m3
mass density (353.13 K, 5711.7 kPa, Liquid): 1069.91 ± 1.1 kg/m3
mass density (353.13 K, 5751 kPa, Liquid): 1071.01 ± 1.1 kg/m3
mass density (353.13 K, 5788.5 kPa, Liquid): 1072.12 ± 1.1 kg/m3
mass density (353.13 K, 5826.7 kPa, Liquid): 1073.17 ± 1.1 kg/m3
mass density (353.13 K, 5865.4 kPa, Liquid): 1074.15 ± 1.1 kg/m3
mass density (353.13 K, 5902.7 kPa, Liquid): 1075.33 ± 1.1 kg/m3
mass density (353.13 K, 5941.8 kPa, Liquid): 1076.43 ± 1.1 kg/m3
mass density (353.13 K, 5981.5 kPa, Liquid): 1077.54 ± 1.1 kg/m3
mass density (353.13 K, 6019.6 kPa, Liquid): 1078.56 ± 1.1 kg/m3
mass density (353.13 K, 6060.4 kPa, Liquid): 1079.62 ± 1.1 kg/m3
mass density (353.13 K, 6101 kPa, Liquid): 1080.65 ± 1.1 kg/m3
mass density (353.13 K, 6140.3 kPa, Liquid): 1081.81 ± 1.1 kg/m3
mass density (353.13 K, 6177.9 kPa, Liquid): 1082.78 ± 1.1 kg/m3
mass density (353.13 K, 6216.7 kPa, Liquid): 1083.8 ± 1.1 kg/m3
